Laboratory results as given in patent publication US20070154549A1, “Multiparticulate formulations for oral delivery” (VECTURA LTD, priority 2003, published 2007).
Structures can show the parent of a compound that is named as a salt.

Assay: Dissolution studies / drug release
Assay type: physicochemical
Details: levels of hydrophobic melt binder of up to 20%

CN(C)CCC(c1ccc(Cl)cc1)c1ccccn1 (stereo not shown) [chlorpheniramine maleate]
drug release: do not delay drug release
